We go through 87 compounds from ChEMBL document CHEMBL5604062, “ASAP - ZIKV NS2B-NS3 protease fluorescence dose response” (2024).

“And” between values parts separate entries of the source, which are not always exact repeats. Identical values can stand only once. Bounds are passed on as bounds.

The assay deals with Nonstructural protein 3 (Zika virus, UniProt A0A024AXB9). As to the kind of experiment: Functional biochemical assay to identify treatments for viral infectious disease that targets Zika NS2B-NS3 protease. Utilizing a direct enzyme activity measurement method, reading the fluorescence intensity is used to characterize the relative potency of inhibitors as IC50. More on the design: species or system PRVABC59.
Sequence of Nonstructural protein 3 (A0A024AXB9 whole entry): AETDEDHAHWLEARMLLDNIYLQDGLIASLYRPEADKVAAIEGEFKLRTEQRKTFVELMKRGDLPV

The IC50 is the concentration that gives 50% inhibition. Low readings indicate greater potency in that assay, high ones weaker potency in that assay.

Regarding `O=C(Nc1cc(Cl)cc(C(=O)Nc2ccc3c(c2)CNC3)c1)OCc1ccccc1`, the IC50 was < 2.49 µM and 0.175 µM and 0.19 µM.

`NCc1nccc(NC(=O)c2cc(Cl)cc(NC(=O)OCc3ccccc3)c2)n1` registered an IC50 greater than 99.5 µM.

`CCn1cc(C(=O)Nc2ccccc2)nc(N2CC[C@@H](CO)C2)c1=O` registered an IC50 greater than 99.5 µM.

The compound `NCc1cccc(NC(=O)c2cc(F)cc(NC(=O)OCc3ccccc3)c2F)c1` returned an IC50 of 74.4 µM.

In turn, `c1cnc2c(c1)CC[C@@H]2NCc1n[nH]c2ccccc12` had an IC50 greater than 99.5 µM.

Turning to `C[C@@H](Cc1c[nH]c2ccccc12)N1CCC(c2nc3ccccc3s2)CC1`, the IC50 is greater than 99.5 µM.

In the case of `O=C(Nc1cc(Cl)cc(C(=O)Nc2cccc(C3CCNCC3)c2)c1)OCc1ccccc1`, the IC50 was 13.2 µM and 12.5 µM.

`COc1ccc(C)cc1S(=O)(=O)N[C@@H](C(=O)Nc1cccc(CN)c1)c1ccc(OCc2ccccc2)cc1` registered an IC50 of 54.6 µM.

`NCc1cccc(NC(=O)[C@@H](NS(=O)(=O)CCc2ccccc2)c2ccc(OCc3ccccc3)cc2)c1` showed an IC50 of 34 µM.

Consider `NC1(c2cccc(NC(=O)c3cc(Cl)cc(NC(=O)OCc4ccccc4)c3)c2)CCC1`, for which the IC50 was greater than 99.5 µM.

The compound `Cc1ccc(-c2nc(NC(=O)[C@H](NC(=O)OCc3ccccc3)c3ccc(OCc4ccccc4)cc3)sc2CN(C)C)cc1` returned an IC50 greater than 99.5 µM.

Compound `CN(C)Cc1cc(NC(=O)c2cc(Cl)cc(NC(=O)OCc3ccccc3)c2)sn1` displayed an IC50 greater than 99.5 µM.

`Cn1ccc(-c2n[nH]cc2CN2CCC(c3nc4ccccc4s3)CC2)n1` yielded an IC50 greater than 99.5 µM.

Take `NCc1cccc(NC(=O)[C@H](NC(=O)OCc2ccccc2)C2CCNCC2)c1`: the half-maximal inhibitory concentration (IC50) was greater than 99.5 µM.

`NCc1cc(S(=O)(=O)Nc2ccc(Cl)cc2C(=O)O)ccc1Oc1ccccc1` displayed an IC50 greater than 99.5 µM.

Consider `O=C(O)c1cc(Cl)cc(Cl)c1S(=O)(=O)Nc1ccc(Oc2ccccc2Cl)cc1`, for which the IC50 is greater than 99.5 µM.

As for `CCNC(=O)c1cn(CC)c(=O)c(N2CC[C@@H](CO)C2)n1`, the IC50 was greater than 99.5 µM.

`NCc1cccc(NC(=O)[C@H](NC(=O)OCc2ccccc2)c2cccc(OCC3CCOCC3)c2)c1` displayed an IC50 greater than 99.5 µM.

Compound `O=C(O)c1cc(Cl)ccc1NS(=O)(=O)c1ccc(-c2cscn2)cc1` came in with an IC50 of 43.1 µM.

Compound `C[C@H]1CN(C(=O)c2cccc3c(CN)cccc23)CCC12CCNCC2` came in with an IC50 greater than 99.5 µM.

Consider `CN1CCc2nc(NC(=O)c3cc(Cl)cc(NC(=O)OCc4ccccc4)c3)sc2C1`, for which the IC50 was greater than 99.5 µM.

Take `CCn1nccc1S(=O)(=O)N[C@@H](C(=O)Nc1cccc(CN)c1)c1ccc(OCc2ccccc2)cc1`: the IC50 is greater than 99.5 µM.

`O=C(O)c1cc(Cl)ccc1S(=O)(=O)N[C@H]1CC[C@@H](Oc2cnccn2)CC1` gave an IC50 greater than 99.5 µM.

As for `COc1ncccc1S(=O)(=O)N[C@H](C(=O)Nc1cccc(CN)c1)c1ccc(OCc2ccccc2)cc1`, the IC50 was greater than 99.5 µM.

Compound `Cn1ccc(CS(=O)(=O)N[C@@H](C(=O)Nc2cccc(CN)c2)c2ccc(OCc3ccccc3)cc2)n1` registered an IC50 greater than 99.5 µM.

In the case of `COC(=O)[C@H](NC(=O)OC(C)(C)C)c1ccc(-c2csc(C)c2)cc1`, the IC50 is greater than 99.5 µM.

As to `CC1=NN(c2ccc(NS(=O)(=O)c3ccc(Cl)cc3C(=O)O)cn2)C(=O)C1`, the IC50 was greater than 99.5 µM.

`c1cncc(CC2CN(Cc3n[nH]c4ccccc34)C2)c1` returned an IC50 greater than 99.5 µM.

In turn, `O=C(Nc1cc(Cl)cc(C(=O)Nc2cccc(CC3CCNCC3)c2)c1)OCc1ccccc1` returned a half-maximal inhibitory concentration (IC50) greater than 99.5 µM.

In the case of `CS(=O)(=O)c1cc(NC(=O)OCc2ccccc2)cc(C(=O)Nc2cccc(CN)c2)c1`, the IC50 is greater than 99.5 µM.

`COC(=O)C1(S(=O)(=O)N[C@H](C(=O)Nc2cccc(CN)c2)c2ccc(OCc3ccccc3)cc2)CCC1`: the IC50 amounted to 98.1 µM.

The compound `c1nc(C2CCN(Cc3n[nH]c4c3CCC4)CC2)cs1` returned an IC50 greater than 99.5 µM.

As to `CCC1([C@H](NC(=O)OCc2ccccc2)C(=O)NCc2cccc(CN)c2)CCCCC1`, the IC50 is greater than 99.5 µM.

Take `NCCc1ccc(NC(=O)c2cc(Cl)cc(NC(=O)OCc3ccccc3)c2)cc1`: the IC50 was 10.7 µM.

For the compound `Cc1cc(NS(=O)(=O)c2ccc(Cl)cc2C(=O)O)nn1Cc1ccccc1`, the IC50 was greater than 99.5 µM.

Compound `Cc1c(NC(=O)OCc2ccccc2)cc(C(=O)Nc2cccc(CN)c2)cc1C(F)(F)F` yielded an IC50 greater than 99.5 µM.

For the compound `c1nc(C2CCN(Cc3n[nH]c4c3COCC4)CC2)cs1`, the IC50 was greater than 99.5 µM.

Turning to `COc1ccc([C@@H](CC(=O)Nc2cccc(CN)c2)NC(=O)OCc2ccccc2)cc1Br`, inhibition was half-maximal at 93.9 µM (IC50).

`COC(=O)c1n[nH]cc1CN1CCC(c2nc3ccccc3s2)CC1`: the IC50 is greater than 99.5 µM.

For `O=C(O)c1cc(Cl)ccc1S(=O)(=O)Nc1ccc(CN2CCCCC2)cc1`, the IC50 was greater than 99.5 µM.

As to `CC(C)c1cc(S(=O)(=O)N[C@H](C(=O)Nc2cccc(CN)c2)c2ccc(OCc3ccccc3)cc2)on1`, the IC50 is greater than 99.5 µM.

For `Cc1nc(CCCNCc2n[nH]c3ccccc23)cs1`, the IC50 is greater than 99.5 µM.

The compound `NCc1cccc(NC(=O)[C@@H](NS(=O)(=O)c2ccccn2)c2ccc(OCc3ccccc3)cc2)c1` had an IC50 greater than 99.5 µM.

In turn, `c1ccc2sc(C3CCN(CCc4c[nH]c5ccccc45)CC3)nc2c1` registered an IC50 greater than 99.5 µM.

Take `NC[C@H]1CC[C@H](NC(=O)c2cc(Cl)cc(NC(=O)OCc3ccccc3)c2)CC1`: the IC50 was greater than 99.5 µM.

For `NCc1cccc(NC(=O)[C@@H]2CCC[C@H](NC(=O)OCc3ccccc3)C2)c1`, the IC50 is greater than 99.5 µM.

`Cn1nc2c(c1NC(=O)c1cc(Cl)cc(NC(=O)OCc3ccccc3)c1)CNC2` showed an IC50 greater than 99.5 µM.

Compound `c1ccc2c(CN[C@H]3CCc4ncsc4C3)n[nH]c2c1` had an IC50 greater than 99.5 µM.

Regarding `NCc1cc(S(=O)(=O)Nc2ccc(Cl)cc2C(=O)NCC(F)(F)F)ccc1Oc1ccccc1`, the IC50 is greater than 99.5 µM.

The compound `O=C(O)c1cc(Cl)ccc1S(=O)(=O)NC1CCN(S(=O)(=O)c2cccs2)CC1` had an IC50 greater than 99.5 µM.

`NCCNC(=O)c1cc(Cl)cc(NC(=O)OCc2ccccc2)c1`: the IC50 is greater than 99.5 µM.

Turning to `NC1CCN(C(=O)c2cc(Cl)cc(NC(=O)OCc3ccccc3)c2)CC1`, the IC50 was greater than 99.5 µM.

Turning to `c1ccc(-c2ncc(CN3CCC(c4nc5ccccc5s4)CC3)[nH]2)cc1`, the IC50 is greater than 99.5 µM.

On to `C[C@@H](N)c1ccc(NC(=O)c2cc(Cl)cc(NC(=O)OCc3ccccc3)c2)cc1`, for which the midpoint of inhibition, the IC50, lay at 14.6 µM.

As for `CC1(C)CNC[C@H](C(=O)Nc2cccc(CN)c2)C1`, the IC50 is greater than 99.5 µM.

In turn, `CCn1cc(C(=O)N2CCN(C)CC2)nc(N2CC[C@@H](CO)C2)c1=O` had an IC50 greater than 99.5 µM.

`O=C(O)c1cc(Cl)ccc1S(=O)(=O)Nc1ccc(S(=O)(=O)Nc2ccccc2)cc1`: the IC50 is greater than 99.5 µM.

As for `c1cc(CN2CCC(c3cscn3)CC2)[nH]n1`, the IC50 was greater than 99.5 µM.

`O=C(O)c1cc(Cl)ccc1S(=O)(=O)N[C@H]1CC[C@H](Oc2cnccn2)CC1` yielded an IC50 greater than 99.5 µM.

In turn, `NCc1cccc(NC(=O)[C@H](NS(=O)(=O)c2cccnc2)c2ccc(OCc3ccccc3)cc2)c1` displayed an IC50 greater than 99.5 µM.

Consider `NCc1cccc(NC(=O)[C@H](NC(=O)OCc2ccccc2)c2cccc(OCc3ncccn3)c2)c1`, for which the IC50 is greater than 99.5 µM.

Compound `CCn1c(=O)c(N2CCC[C@H]2c2nncs2)nc2ccccc21` gave an IC50 greater than 99.5 µM.

In turn, `Cc1cc(CN(C)C)cc(NC(=O)[C@H](NC(=O)OCc2ccccc2)c2ccc(OCc3ccccc3)cc2)c1` displayed an IC50 greater than 99.5 µM.

Compound `c1ccc2sc(C3CCN(Cc4n[nH]c5c4CCCC5)CC3)nc2c1` showed an IC50 greater than 99.5 µM.

In turn, `NCc1cccc(NC(=O)c2cc(NC(=O)OCc3ccccc3)cc(Cl)c2Cl)c1` gave an IC50 of 43.9 µM.

Consider `CCn1nc(-c2ccccc2)cc1NS(=O)(=O)c1ccc(Cl)cc1C(=O)O`, for which the IC50 amounted to 29.6 µM.

`COc1n[nH]cc1CN1CCC(c2nc3ccccc3s2)CC1` had an IC50 greater than 99.5 µM.

Compound `C[C@H]1CNC[C@H](C(=O)Nc2cccc(CN)c2)C1` came in with an IC50 greater than 99.5 µM.

As to `Cc1nn(C)cc1S(=O)(=O)N[C@@H](C(=O)Nc1cccc(CN)c1)c1ccc(OCc2ccccc2)cc1`, the IC50 is greater than 99.5 µM.

On to `Cn1ccc(Nc2ccc(S(=O)(=O)Nc3ccc(Cl)cc3C(=O)O)cn2)n1`, for which the IC50 was greater than 99.5 µM.

Turning to `Cn1ccnc1S(=O)(=O)N[C@@H](C(=O)Nc1cccc(CN)c1)c1ccc(OCc2ccccc2)cc1`, the IC50 was greater than 99.5 µM.

For `CC1(N2CCC(NS(=O)(=O)c3ccc(Cl)cc3C(=O)O)CC2)CCCCC1`, the IC50 is greater than 99.5 µM.

The compound `NCc1cccc(NC(=O)[C@@H](NS(=O)(=O)c2ccccc2F)c2ccc(OCc3ccccc3)cc2)c1` had an IC50 of 99 µM.

`c1ccc2c(CN[C@H]3CCc4c([nH]c5ccccc45)C3)n[nH]c2c1` showed an IC50 greater than 99.5 µM.

Compound `CCS(=O)(=O)N[C@@H](C(=O)Nc1cccc(CN)c1)c1ccc(OCc2ccccc2)cc1` returned an IC50 greater than 99.5 µM.

On to `CN(C(=O)c1cc(Cl)cc(NC(=O)OCc2ccccc2)c1)c1ccc(CN)cc1`, for which the IC50 is greater than 99.5 µM.

With `CC(=O)N1CCC[C@H]1C(=O)N[C@@H](C(=O)Nc1cccc(CN)c1)c1ccc(OCc2ccccc2)cc1`, the IC50 is greater than 99.5 µM.

`CC(C)N1CCc2nc(NC(=O)[C@H](NC(=O)OCc3ccccc3)c3ccc(OCc4ccccc4)cc3)sc2C1` showed an IC50 greater than 99.5 µM.

`Cn1nccc1CN1CCC(NS(=O)(=O)c2ccc(Cl)cc2C(=O)O)CC1` had an IC50 greater than 99.5 µM.

`N#Cc1ccccc1O[C@H]1CC[C@H](NS(=O)(=O)c2ccc(Cl)cc2C(=O)O)CC1` showed an IC50 greater than 99.5 µM.

With `NCc1cccc(NC(=O)[C@@H]2C[C@H](NC(=O)OCc3ccccc3)[C@H]3C[C@H]32)c1`, the IC50 is greater than 99.5 µM.

In the case of `NCc1cccc(NC(=O)[C@H](NS(=O)(=O)C[C@H]2COCCO2)c2ccc(OCc3ccccc3)cc2)c1`, the IC50 was greater than 99.5 µM.

Compound `Cc1csc(COc2cccc([C@H](NC(=O)OCc3ccccc3)C(=O)Nc3cccc(CN)c3)c2)n1` came in with an IC50 of 29.8 µM.

`C[C@H]1CC[C@H](CS(=O)(=O)N[C@H](C(=O)Nc2cccc(CN)c2)c2ccc(OCc3ccccc3)cc2)CC1` displayed an IC50 of 15.4 µM.

For `CCn1cc(S(=O)(=O)N[C@@H](C(=O)Nc2cccc(CN)c2)c2ccc(OCc3ccccc3)cc2)cn1`, the IC50 was greater than 99.5 µM.

`NCc1cccc(NC(=O)[C@H](NC(=O)OCc2ccccc2)c2cccc(OCc3ccccn3)c2)c1`: the IC50 was greater than 99.5 µM.

Consider `NCc1ccc(Oc2ccc(S(=O)(=O)Nc3ccc(Cl)cc3C(=O)O)cc2)cc1`, for which the IC50 is greater than 99.5 µM.
